Our source for the inhibition and IC50 values is patent US11613531B2, “Inhibitors of RHO associated coiled-coil containing protein kinase” (Kadmon Corporation, LLC, priority 2017, dated 2023).

The target in assay [1] is Recombinant ROCK2 (amino acids 1-552) (Homo sapiens (Human), UniProt O75116). The assay is described as follows: Z′-Lyte kinase assay, ROCK2. In kind it is biochemical. The conditions noted are these: for inhibition at 1 µM: 1 μM compound, read-out: ROCK2 % inh. @ [conc]. The method, then: Determination of Compound's ROCK Inhibitory Activity In Vitro (Z'Lyte Assay).
Recombinant ROCK1 (amino acids 1-535) and ROCK2 (amino acids 1-552) proteins were purchased from ThermoFisher Scientific. Compound's activities were measured by Z′-lyte kinase kit (ThermoFisher Scientific) and IC50 was calculated
In vitro activities for the compounds were measured with Z′-lyte kinase kit (ThermoFisher Scientific). The percent inhibition rate was calculated by normalizing the kinase activity value obtained with 1 μM compound treatment against DMSO control value and then applied to the formula, [1-(compound/DMSO)]×100%. IC50s were calculated using the nonlinear regression curve fit function of the GraphPad Prism software with kinase activities data measured with 9 points 2-fold serial dilution of compounds treatment. In cell pMLC IC50s were calculated with data obtained from A7R5 cell experiments. A7R5 cells were treated with 9 points 2-fold serial dilution of compounds and ppMlc (T18/S19) levels were determined to calculate cellular IC50 values of the compounds using the nonlinear regression curve fit function of the GraphPad Prism software. NIH3T3 cells stably expressing ACTA2-promoter-driven-luciferase were applied to measure ROCK compounds functional IC50s in cells. Cells were plated in 96 well plates to confluence and treated with 9 points serial dilution of compounds in combination with TGFβ1 for 24 hr. Luciferase activities were measured and compound's IC50s were calculated using the nonlinear regression curve fit function of the GraphPad Prism software.

For assay [2], the system named is ppMlc (T18/S19) levels in A7R5 cells. The assay is described as follows: A7R5 in-cell ELISA (pMLC). The class given is cell-based, Rat. Conditions: Rattus norvegicus, A7R5, A7R5 cells; for inhibition at 10 µM: 10 μM compound; for inhibition at 10 µM / inhibition at 1 µM: read-out: pMLC % inh A7R5 @ [conc]; for inhibition at 1 µM: 1 μM compound; for IC50: ppMlc (T18/S19). In outline:
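A7R5 rat aortic smooth muscle cells seeded 24 h, then treated 90 min with a 9-point 2-fold compound dilution series. Fixed cells probed for ppMlc (T18/S19) by colorimetric in-cell ELISA; cellular IC50 from nonlinear regression curve fit.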
(An ELISA detects its analyte on a solid surface through an enzyme-linked reagent.)

The IC50 is the midpoint of a concentration-inhibition curve.

Molecules are shown by their SMILES. Read-outs that look alike come from different tables or passages of the source.

Recombinant ROCK2 (amino acids 1-552), sequence (O75116 1-552): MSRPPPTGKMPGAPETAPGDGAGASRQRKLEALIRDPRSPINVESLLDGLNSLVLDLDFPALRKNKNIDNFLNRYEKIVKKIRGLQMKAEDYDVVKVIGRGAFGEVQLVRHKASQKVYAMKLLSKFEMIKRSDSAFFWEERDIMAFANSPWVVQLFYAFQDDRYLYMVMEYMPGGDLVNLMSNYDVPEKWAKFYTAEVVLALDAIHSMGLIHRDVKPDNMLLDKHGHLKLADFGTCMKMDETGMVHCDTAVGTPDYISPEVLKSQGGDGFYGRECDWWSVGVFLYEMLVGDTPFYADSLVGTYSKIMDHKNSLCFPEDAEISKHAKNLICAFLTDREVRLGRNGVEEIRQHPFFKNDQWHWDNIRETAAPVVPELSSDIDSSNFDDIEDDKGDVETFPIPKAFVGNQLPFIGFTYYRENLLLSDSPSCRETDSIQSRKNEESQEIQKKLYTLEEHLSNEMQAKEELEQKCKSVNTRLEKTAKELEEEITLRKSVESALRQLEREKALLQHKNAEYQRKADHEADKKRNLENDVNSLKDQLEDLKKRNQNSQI

Consider `CCC1CN(c2nc(C)c(C)c(Nc3ccc4[nH]ncc4c3)n2)CCCN1` (centres unmarked) [Example 26, N-(2-(3-ethyl-1,4-diazepan-1-yl)-5,6-dimethylpyrimidin-4-yl)-1H-indazol-5-amine], for which, in assay [1], the inhibition at 1 µM amounted to 33.5%. In addition, in assay [2], the inhibition at 10 µM amounted to 39.9%.
As for `Cc1nc(N2CCNCC2C)nc(Nc2ccc3[nH]ncc3c2)c1C` (centres unmarked) [Example 27, N-(5,6-dimethyl-2-(2-methylpiperazin-1-yl)pyrimidin-4-yl)-1H-indazol-5-amine], the inhibition at 1 µM was 71.3% in assay [1] and 16.8% in assay [2].
In the case of `Cc1nc(N2CCNCC(C)C2)nc(Nc2ccc3[nH]ncc3c2)c1C` (centres unmarked) [Example 28, N-(5,6-dimethyl-2-(6-methyl-1,4-diazepan-1-yl)pyrimidin-4-yl)-1H-indazol-5-amine], the results for the inhibition at 1 µM in assay [1] and in assay [2] were 45% and 11.8%, respectively.
As for `COc1cnc(N2CCNCC2)nc1Nc1ccc2[nH]ncc2c1` [Example 30, N-(5-methoxy-2-(piperazin-1-yl)pyrimidin-4-yl)-1H-indazol-5-amine], the inhibition at 1 µM in assay [1] was found to be 90.6%. Besides, in assay [2], the inhibition at 10 µM is 56.4% and the IC50 turned out to be 1120 nM.
Taken in the same sequence, the figures for `COc1cnc(N2CCNC(C)C2)nc1Nc1ccc2[nH]ncc2c1` (centres unmarked) [Example 31, N-(5-methoxy-2-(3-methylpiperazin-1-yl)pyrimidin-4-yl)-1H-indazol-5-amine] were 78.1%, 58% and 1850 nM.
As to `COc1cnc(N2CCCNC(C(C)C)C2)nc1Nc1ccc2[nH]ncc2c1` (centres unmarked) [Example 32, N-(2-(3-isopropyl-1,4-diazepan-1-yl)-5-methoxypyrimidin-4-yl)-1H-indazol-5-amine], in assay [1], the inhibition at 1 µM came to 44.6%. Further, in assay [2], the inhibition at 10 µM was determined as 53.7% and the IC50 was determined as 3950 nM.
Regarding `c1cc(Nc2ccc(-c3cn[nH]c3)cc2)nc(N2CCNCC2)n1` [Example 38, N-(4-(1H-pyrazol-4-yl)phenyl)-2-(piperazin-1-yl)pyrimidin-4-amine], in assay [1], the IC50 amounted to 451 nM and the inhibition at 1 µM was found to be 63.1%. For the same molecule, in assay [2], the inhibition at 1 µM was 9.2%.
Turning to `c1cc(Nc2ccc(-c3cnn[nH]3)cc2)nc(N2CCNCC2)n1` [Example 41, N-(4-(1H-1,2,3-triazol-5-yl)phenyl)-2-(piperazin-1-yl)pyrimidin-4-amine], in assay [1] (9 points 2-fold serial dilution), the IC50 was over 10000 nM. Besides, in assay [2], the inhibition at 10 µM worked out at 9.96%.
On to `c1cc(Nc2ccc(-c3cn[nH]c3)cc2)nc(N2CCCNCC2)n1` [Example 44, N-(4-(1H-pyrazol-4-yl)phenyl)-2-(1,4-diazepan-1-yl)pyrimidin-4-amine], for which the half-maximal inhibitory concentration (IC50) in assay [1] came out at 220 nM. Also, the inhibition at 1 µM in assay [1] was 72.7%; in assay [2] it was 13.2%.
`COc1cnc(N2CCNC(C(C)C)CC2)nc1Nc1ccc2[nH]ncc2c1` (centres unmarked) [Example 47, N-(2-(5-isopropyl-1,4-diazepan-1-yl)-5-methoxypyrimidin-4-yl)-1H-indazol-5-amine]: in assay [1], the inhibition at 1 µM came out at 33.1%. In addition, the inhibition at 10 µM in assay [2] was found to be 45.6%.
On to `CCC1CN(c2ncc(OC)c(Nc3ccc4[nH]ncc4c3)n2)CCN1` (centres unmarked) [Example 49, N-(2-(3-ethylpiperazin-1-yl)-5-methoxypyrimidin-4-yl)-1H-indazol-5-amine], for which the inhibition at 1 µM in assay [1] was determined as 50.6%. In assay [2], the inhibition at 10 µM amounted to 46.3%.
For `COc1cnc(N2CCNC(C(C)C)C2)nc1Nc1ccc2[nH]ncc2c1` (centres unmarked) [Example 51, N-(2-(3-isopropylpiperazin-1-yl)-5-methoxypyrimidin-4-yl)-1H-indazol-5-amine], the inhibition at 1 µM in assay [1] is 29.3%. In addition, the inhibition at 10 µM in assay [2] was 39.4%.
Regarding `COc1cnc(N2CCNC(C)CC2)nc1Nc1ccc2[nH]ncc2c1` (centres unmarked) [Example 53, N-(5-methoxy-2-(5-methyl-1,4-diazepan-1-yl)pyrimidin-4-yl)-1H-indazol-5-amine], in assay [1], the inhibition at 1 µM was 74.5%. Moreover, in assay [2], the inhibition at 10 µM was found to be 51.3% and the IC50 was determined as 1720 nM.
